Results on 19 molecules are retold here after ChEMBL document CHEMBL1201862, “PubChem BioAssay data set” (2004).

As a reminder, the AC50 is the concentration at which the activity in the assay is half-maximal.

Active and inactive are the calls of the source.

The target of test [1] is T1, High affinity choline transporter 1 (Homo sapiens, UniProt Q9GZV3).
T1 sequence (Q9GZV3 whole entry): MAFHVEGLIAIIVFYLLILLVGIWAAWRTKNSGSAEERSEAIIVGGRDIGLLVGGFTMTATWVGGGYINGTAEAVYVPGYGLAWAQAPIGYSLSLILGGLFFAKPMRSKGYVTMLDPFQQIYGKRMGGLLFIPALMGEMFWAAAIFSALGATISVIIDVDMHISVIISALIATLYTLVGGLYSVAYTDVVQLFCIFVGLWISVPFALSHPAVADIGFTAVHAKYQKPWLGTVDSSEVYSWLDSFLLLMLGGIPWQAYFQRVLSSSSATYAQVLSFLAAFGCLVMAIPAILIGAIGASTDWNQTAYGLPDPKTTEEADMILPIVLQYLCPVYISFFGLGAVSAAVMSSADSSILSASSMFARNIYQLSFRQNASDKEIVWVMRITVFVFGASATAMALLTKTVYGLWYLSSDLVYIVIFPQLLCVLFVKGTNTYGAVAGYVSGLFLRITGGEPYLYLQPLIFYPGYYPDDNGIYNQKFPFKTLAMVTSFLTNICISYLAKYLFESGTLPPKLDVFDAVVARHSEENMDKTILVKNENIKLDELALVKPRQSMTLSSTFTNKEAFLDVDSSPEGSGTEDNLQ
In words: CHT inhibitors, dose response, cell-based, 5-point CRC, membrane potential dye (AID 504840). The format is functional.

Another test has as its target T2, Coagulation factor XII (Homo sapiens, UniProt P00748).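 Note: activated factor XIIa alpha cleaving a fluorogenic AMC peptide substrate; inhibitor potency from loss of enzyme activity.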
T2 sequence (P00748 whole entry): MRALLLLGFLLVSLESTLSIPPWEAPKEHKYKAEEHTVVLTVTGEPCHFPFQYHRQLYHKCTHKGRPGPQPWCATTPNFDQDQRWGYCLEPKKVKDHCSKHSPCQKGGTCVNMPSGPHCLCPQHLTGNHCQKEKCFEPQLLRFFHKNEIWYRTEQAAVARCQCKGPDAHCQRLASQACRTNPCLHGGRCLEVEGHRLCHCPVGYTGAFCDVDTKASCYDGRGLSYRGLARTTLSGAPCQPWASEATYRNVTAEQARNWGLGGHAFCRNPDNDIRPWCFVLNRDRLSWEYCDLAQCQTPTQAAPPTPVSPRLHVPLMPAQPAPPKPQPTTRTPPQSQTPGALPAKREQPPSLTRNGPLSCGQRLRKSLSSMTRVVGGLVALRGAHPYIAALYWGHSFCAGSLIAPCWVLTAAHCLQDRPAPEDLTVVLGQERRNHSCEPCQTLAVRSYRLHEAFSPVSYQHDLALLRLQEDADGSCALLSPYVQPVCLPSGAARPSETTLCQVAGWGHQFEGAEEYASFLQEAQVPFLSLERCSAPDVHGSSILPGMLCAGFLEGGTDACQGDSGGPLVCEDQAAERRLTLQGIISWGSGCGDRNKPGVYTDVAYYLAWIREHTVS
In kind it is functional.

Another test deals with T3, Cytochrome P450 1A2 (Homo sapiens, UniProt P05177).
T3 sequence (P05177 whole entry): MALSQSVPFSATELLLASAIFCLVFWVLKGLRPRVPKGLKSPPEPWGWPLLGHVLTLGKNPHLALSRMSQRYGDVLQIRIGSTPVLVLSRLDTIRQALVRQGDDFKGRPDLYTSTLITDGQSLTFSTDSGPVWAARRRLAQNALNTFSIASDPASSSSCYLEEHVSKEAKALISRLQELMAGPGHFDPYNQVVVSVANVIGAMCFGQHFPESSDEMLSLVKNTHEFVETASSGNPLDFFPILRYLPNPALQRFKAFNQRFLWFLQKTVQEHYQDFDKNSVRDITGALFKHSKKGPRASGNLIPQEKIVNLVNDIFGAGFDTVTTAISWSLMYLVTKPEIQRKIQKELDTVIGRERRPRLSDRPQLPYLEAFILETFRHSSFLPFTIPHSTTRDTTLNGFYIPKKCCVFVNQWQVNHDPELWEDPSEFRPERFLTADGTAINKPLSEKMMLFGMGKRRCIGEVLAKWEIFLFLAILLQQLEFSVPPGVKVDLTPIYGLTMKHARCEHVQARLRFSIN

Test [2] has as its target Eukaryotic translation initiation factor 4E (Mus musculus, UniProt P63073). In words: eIF4E–eIF4G protein interaction inhibitors, dose response, biochemical, TR-FRET (AID 855).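 Note: potency for disrupting eIF4E binding to eIF4GI seen as loss of FRET.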 The format is functional.
The target in another test is Cytochrome P450 2D6 (Homo sapiens, UniProt P10635).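 Note: CYP2D6 member of a cytochrome P450 panel assay.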
A further test deals with Large T antigen (Simian virus 40, UniProt P03070). In kind it is functional, Betapolyomavirus macacae.
In test [3] the target is Induced myeloid leukemia cell differentiation protein Mcl-1 (Homo sapiens, UniProt Q07820). In kind it is functional.
The next test concerns the target T4, Streptokinase A (Streptococcus pyogenes serotype M1, UniProt P10520).
T4 sequence (P10520 whole entry): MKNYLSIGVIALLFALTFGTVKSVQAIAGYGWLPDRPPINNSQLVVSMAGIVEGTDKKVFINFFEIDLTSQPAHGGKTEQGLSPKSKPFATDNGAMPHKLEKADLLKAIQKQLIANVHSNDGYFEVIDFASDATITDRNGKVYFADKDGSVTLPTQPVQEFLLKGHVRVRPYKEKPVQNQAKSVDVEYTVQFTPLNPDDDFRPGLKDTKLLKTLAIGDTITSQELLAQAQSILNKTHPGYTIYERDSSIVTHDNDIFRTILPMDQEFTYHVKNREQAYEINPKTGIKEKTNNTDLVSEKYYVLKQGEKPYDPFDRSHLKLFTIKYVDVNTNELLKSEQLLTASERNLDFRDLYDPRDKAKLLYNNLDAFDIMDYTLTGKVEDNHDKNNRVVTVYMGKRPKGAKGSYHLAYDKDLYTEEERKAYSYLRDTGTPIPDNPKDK
In words: S. pyogenes streptokinase expression inhibitors, potency, dose response, plasminogen activation absorbance, OD405 (AID 1914).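 Note: secreted streptokinase activity via plasminogen activation per viability signal from cell pellet.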 In kind it is functional, Streptococcus pyogenes M1 GAS.

Test [4] addresses T5, Rac GTPase-activating protein 1 (Homo sapiens, UniProt Q9H0H5).
T5 sequence (Q9H0H5 whole entry): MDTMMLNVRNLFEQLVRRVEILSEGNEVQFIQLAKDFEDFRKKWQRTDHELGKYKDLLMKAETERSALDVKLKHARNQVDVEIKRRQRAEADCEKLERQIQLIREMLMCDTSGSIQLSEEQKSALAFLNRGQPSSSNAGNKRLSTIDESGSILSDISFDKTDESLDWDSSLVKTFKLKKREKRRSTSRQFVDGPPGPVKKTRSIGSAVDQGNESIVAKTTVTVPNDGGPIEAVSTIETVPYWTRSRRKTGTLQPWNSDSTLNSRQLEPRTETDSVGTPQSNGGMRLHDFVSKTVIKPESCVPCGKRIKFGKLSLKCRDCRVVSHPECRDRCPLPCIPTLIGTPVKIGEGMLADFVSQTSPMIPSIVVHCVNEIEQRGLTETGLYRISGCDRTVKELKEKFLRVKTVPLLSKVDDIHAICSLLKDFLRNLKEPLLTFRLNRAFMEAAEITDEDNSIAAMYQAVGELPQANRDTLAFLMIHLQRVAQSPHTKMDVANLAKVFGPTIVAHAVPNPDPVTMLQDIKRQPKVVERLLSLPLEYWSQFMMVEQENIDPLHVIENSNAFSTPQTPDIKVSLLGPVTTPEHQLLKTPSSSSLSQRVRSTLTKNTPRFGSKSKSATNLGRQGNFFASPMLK
In words: MgcRacGAP GTPase-activating activity inhibitors, confirmation, biochemical, ADP Hunter fluorescence, primary and confirmatory (AID 624330). The format is functional.

Another test has as its system Streptococcus. In words: Group A Streptococcus viability loss, dose response, counter-screen for streptokinase expression inhibitor project, luminescence, BacTiterGlo (AID 1915).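 Note: potency for reduction of bacterial viability or growth.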 The format is functional, organism-based.
A further test addresses T6, Leucine aminopeptidase (Plasmodium falciparum 3D7, UniProt Q8IL11).
T6 sequence (Q8IL11 whole entry): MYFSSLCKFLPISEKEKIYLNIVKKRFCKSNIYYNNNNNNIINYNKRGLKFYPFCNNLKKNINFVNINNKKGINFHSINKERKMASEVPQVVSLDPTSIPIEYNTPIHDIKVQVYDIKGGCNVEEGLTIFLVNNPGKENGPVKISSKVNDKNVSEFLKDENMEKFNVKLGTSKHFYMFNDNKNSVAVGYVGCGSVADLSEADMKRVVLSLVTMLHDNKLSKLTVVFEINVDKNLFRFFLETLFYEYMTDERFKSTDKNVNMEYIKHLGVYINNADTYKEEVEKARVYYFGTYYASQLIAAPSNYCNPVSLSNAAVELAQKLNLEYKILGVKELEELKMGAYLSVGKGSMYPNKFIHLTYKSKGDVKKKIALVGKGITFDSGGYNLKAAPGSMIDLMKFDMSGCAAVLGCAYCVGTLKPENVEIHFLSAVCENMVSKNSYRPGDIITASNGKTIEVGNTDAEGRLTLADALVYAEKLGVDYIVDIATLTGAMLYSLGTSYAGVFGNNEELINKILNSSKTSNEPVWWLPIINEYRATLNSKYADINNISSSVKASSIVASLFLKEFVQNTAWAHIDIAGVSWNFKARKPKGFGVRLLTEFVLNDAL
In words: P. falciparum M17LAP inhibitors, primary screen, biochemical, fluorogenic H-Leu-NHMec substrate, 1536-well (AID 1619). The format is functional.

Test [5] has as its target T7, Corticotropin-releasing factor receptor 2/Corticotropin-releasing factor-binding protein (Homo sapiens, UniProt P24387+Q13324).
T7 sequence (Q13324 whole entry): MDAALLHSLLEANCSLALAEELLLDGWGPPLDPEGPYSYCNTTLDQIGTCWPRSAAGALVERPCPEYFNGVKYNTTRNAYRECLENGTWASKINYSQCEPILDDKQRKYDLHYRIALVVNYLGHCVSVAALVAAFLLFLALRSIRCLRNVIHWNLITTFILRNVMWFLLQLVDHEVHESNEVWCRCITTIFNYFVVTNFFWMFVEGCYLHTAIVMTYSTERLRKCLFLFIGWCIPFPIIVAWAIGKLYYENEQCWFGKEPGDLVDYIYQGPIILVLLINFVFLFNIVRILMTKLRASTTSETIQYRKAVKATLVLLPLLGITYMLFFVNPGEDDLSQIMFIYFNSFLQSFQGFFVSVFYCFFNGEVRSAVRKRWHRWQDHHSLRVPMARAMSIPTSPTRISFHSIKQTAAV
T7 sequence (P24387 whole entry): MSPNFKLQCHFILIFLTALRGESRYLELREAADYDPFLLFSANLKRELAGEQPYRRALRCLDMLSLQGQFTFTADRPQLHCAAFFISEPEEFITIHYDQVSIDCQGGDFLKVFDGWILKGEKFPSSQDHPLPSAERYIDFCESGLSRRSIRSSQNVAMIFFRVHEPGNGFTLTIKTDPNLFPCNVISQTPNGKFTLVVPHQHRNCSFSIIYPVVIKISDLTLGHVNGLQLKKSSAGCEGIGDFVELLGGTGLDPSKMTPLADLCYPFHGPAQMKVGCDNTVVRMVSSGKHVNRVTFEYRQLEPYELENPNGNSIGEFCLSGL
In words: activators of CRF receptor 2 with binding protein – uHTS hits, confirmation (AID 602473). In kind it is functional. Conditions: read-out: EC50_Mean.

Test [6] concerns the target T7, Corticotropin-releasing factor receptor 2/Corticotropin-releasing factor-binding protein. In words: Dose Response confirmation of uHTS hits for small molecule antagonists of the CRF-binding protein and CRF-R2 receptor complex. Conditions: read-out: IC50_Mean. In kind it is functional.

Sequence of Eukaryotic translation initiation factor 4E (P63073 whole entry): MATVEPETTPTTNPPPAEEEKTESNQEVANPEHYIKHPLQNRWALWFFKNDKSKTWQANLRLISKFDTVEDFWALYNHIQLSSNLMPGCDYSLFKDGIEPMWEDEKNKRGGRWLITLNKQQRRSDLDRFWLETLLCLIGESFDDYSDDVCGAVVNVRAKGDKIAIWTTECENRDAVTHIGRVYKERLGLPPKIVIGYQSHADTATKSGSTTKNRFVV
Sequence of Large T antigen (P03070 whole entry): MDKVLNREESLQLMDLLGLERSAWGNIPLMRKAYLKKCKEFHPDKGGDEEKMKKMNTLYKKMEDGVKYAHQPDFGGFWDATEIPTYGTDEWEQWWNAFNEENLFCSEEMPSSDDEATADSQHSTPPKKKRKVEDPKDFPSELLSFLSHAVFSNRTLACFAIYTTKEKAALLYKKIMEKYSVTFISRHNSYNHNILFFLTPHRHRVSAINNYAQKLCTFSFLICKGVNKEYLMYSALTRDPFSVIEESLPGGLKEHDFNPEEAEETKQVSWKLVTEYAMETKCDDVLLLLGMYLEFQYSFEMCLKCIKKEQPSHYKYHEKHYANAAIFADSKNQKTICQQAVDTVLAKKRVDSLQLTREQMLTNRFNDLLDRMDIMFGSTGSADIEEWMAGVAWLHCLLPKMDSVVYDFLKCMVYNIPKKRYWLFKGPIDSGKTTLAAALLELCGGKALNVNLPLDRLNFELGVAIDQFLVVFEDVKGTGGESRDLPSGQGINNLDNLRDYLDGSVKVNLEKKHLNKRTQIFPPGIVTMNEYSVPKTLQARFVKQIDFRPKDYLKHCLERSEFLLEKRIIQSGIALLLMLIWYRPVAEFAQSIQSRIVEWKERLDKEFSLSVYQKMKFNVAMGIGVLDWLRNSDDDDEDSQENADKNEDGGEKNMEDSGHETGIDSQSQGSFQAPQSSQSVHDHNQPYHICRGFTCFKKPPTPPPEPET
Sequence of Induced myeloid leukemia cell differentiation protein Mcl-1 (Q07820 whole entry): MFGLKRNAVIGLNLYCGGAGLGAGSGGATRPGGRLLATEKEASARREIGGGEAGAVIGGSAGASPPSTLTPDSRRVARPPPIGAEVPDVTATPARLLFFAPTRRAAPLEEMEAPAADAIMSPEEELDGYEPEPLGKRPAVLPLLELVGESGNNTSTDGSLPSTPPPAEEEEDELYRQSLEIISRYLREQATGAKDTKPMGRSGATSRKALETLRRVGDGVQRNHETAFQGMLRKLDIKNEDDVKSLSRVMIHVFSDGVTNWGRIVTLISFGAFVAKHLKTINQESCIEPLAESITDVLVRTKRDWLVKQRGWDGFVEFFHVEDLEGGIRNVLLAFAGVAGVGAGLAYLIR
Sequence of Cytochrome P450 2D6 (P10635 whole entry): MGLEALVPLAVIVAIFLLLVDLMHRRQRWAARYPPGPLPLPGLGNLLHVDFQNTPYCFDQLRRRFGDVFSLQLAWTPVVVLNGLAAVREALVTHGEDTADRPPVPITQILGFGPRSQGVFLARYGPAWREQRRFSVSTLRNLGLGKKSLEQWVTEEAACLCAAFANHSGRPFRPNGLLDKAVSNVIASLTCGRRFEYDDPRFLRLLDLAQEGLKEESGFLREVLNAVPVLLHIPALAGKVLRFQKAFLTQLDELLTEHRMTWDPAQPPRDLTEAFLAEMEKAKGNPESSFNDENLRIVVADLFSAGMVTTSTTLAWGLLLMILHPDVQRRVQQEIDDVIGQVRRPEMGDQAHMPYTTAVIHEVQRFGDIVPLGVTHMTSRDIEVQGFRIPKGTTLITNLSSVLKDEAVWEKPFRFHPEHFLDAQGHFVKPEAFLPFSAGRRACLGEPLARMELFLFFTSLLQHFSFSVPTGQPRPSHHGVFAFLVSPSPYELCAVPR

Take `CC(C)CN1CCC(Oc2cccc(C(=O)NCCc3ccccc3)c2)CC1`: the IC50 in test [1] was 10.7 µM (active). Consider `CSC1=NSC2=NC(=O)/C(=C\c3c(C)[nH]c4ccc(C)cc34)C(=N)N12`, for which the IC50 on Coagulation factor XII is > 50 µM (inactive). `COC(=O)c1c(NC(=O)c2c(-c3ccccc3Cl)noc2C)sc2c1CCC2`: the IC50 on Coagulation factor XII was 4.24 µM (active). With `CC(NC(=O)c1ccc(Cn2cc([N+](=O)[O-])cn2)o1)c1ccccc1` (stereo not given), the AC50 at Cytochrome P450 1A2 is 17.8 µM (inconclusive). Moreover, the IC50 in test [2] was > 64 µM (inactive). Consider `Nc1ccc(-c2sc(N)nc2-c2ccccc2)cc1`, for which, on Cytochrome P450 2D6, the AC50 is 17.8 µM (inconclusive). The IC50 at Large T antigen was 14.5 µM (active). In the case of `Cc1ccc([N+](=O)[O-])cc1-c1ccc2cccc(C)c2n1`, the IC50 in test [2] was > 64 µM (inactive).

As for `Nc1ccc2[nH]c(-c3ccc(Cl)cc3)nc2c1`, the values for the IC50 in test [3] and in [4] were 8.16 µM (not active) and 37.8 µM (active), respectively. For the same molecule, the EC50 on Streptokinase A and in the test with Streptococcus was > 150 µM (not active) throughout.

For `C=CCOc1c(CNc2ccc3[nH]c(O)nc3c2)cccc1OC`, the IC50 at Large T antigen was 96.9 µM (active).

On to `CC(=O)OC1=C(C#N)Cn2ccc3cccc1c32`, for which, in [2], the IC50 is > 64 µM (inactive). With `CCOC(=O)c1c(NC(=O)c2ccc(Br)o2)sc2c1CCCC2`, the IC50 at Coagulation factor XII was > 50 µM (inactive). With `O=C(NC(=S)Nc1ccc(O)cc1)c1ccccc1Cl`, at Large T antigen, the IC50 was 6.97 µM (active).

Regarding `Cn1c(SCC(=O)N/N=C/c2ccc(O)c(O)c2)nc2ccccc21`, the IC50 at Large T antigen is 3.29 µM (active).

With `CCOc1ccc2nc(O)c(C(c3nnnn3C3CCCCC3)N3CCN(C)CC3)cc2c1` (stereo not given), the IC50 at Coagulation factor XII is > 50 µM (inactive). Consider `OC1=C2C(=Nc3nc(S)nc(O)c3C2c2ccc(Br)cc2)CCC1` (stereo not given), for which the IC50 at Leucine aminopeptidase is 16.7 µM (active); on Large T antigen it was 48.1 µM (active); in test [2], > 64 µM (inactive). As for `CC(=O)Nc1sc(N/N=C\c2ccco2)nc1-c1cccs1`, the IC50 is 5.23 µM (active) in test [3] and 50.8 µM (active) at Large T antigen. As to `COc1cc(/C=N/n2cnnc2)ccc1OC(=O)c1cccnc1`, the IC50 at Coagulation factor XII is > 50 µM (inactive); in [4], 32 µM (active). Regarding `FC(F)C(F)(F)C(F)(F)C(F)(F)c1cc(-c2ccccc2)n[nH]1`, at Coagulation factor XII, the IC50 is > 50 µM (inactive). With `Brc1cccc(C2CC(c3ccccc3)n3nnnc3N2)c1` (stereo not given), the EC50 in [5] was > 53 µM (inactive). Besides, the IC50 in test [6] was > 47.1 µM (inactive); in test [2], > 64 µM (inactive). Consider `O=C(NCCc1ccccc1)c1cc(=O)c2ccccc2o1`, for which, at Coagulation factor XII, the IC50 was > 50 µM (inactive).
